{
  "source": "patent US20050182105A1",
  "about": "(priority 2004, published 2005)",
  "key": {"[1]": {"tested_on": "wild type AR (MDA 453 cells)", "details": "read-out: Kd for [3H]-DHT, Scatchard analysis, 4 h at 37° C.", "procedure": "For the whole-cell binding assay, human LNCaP cells (T877A mutant AR) or MDA 453 (wild type AR) in 96-well microtiter plates containing RPMI 1640 or DMEM supplemented with 10% charcoal stripped CA-FBS (Cocaleco Biologicals) respectively, were incubated at 37° C. to remove any endogenous ligand that might be complexed with the receptor in the cells.\nFor the saturation analysis, the difference between the total binding and the non-specific binding, was defined as specific binding. […] See e.g. D. Rodbard, Mathematics and statistics of ligand assays: an illustrated guide: In: J. Langon and J. J. Clapp, eds., Ligand Assay, Masson Publishing U.S.A., Inc., New York, pp. 45-99, (1981), the disclosure of which is herein incorporated by reference.\nTwo replicates were used for each sample. […] After correcting for non-specific binding, IC50 values were determined. […] C2C12 Mouse Myoblast Transactivation Assay"}, "[2]": {"target": "glucocorticoid receptor (Homo sapiens, UniProt P04150)", "sequence (P04150 whole entry)": "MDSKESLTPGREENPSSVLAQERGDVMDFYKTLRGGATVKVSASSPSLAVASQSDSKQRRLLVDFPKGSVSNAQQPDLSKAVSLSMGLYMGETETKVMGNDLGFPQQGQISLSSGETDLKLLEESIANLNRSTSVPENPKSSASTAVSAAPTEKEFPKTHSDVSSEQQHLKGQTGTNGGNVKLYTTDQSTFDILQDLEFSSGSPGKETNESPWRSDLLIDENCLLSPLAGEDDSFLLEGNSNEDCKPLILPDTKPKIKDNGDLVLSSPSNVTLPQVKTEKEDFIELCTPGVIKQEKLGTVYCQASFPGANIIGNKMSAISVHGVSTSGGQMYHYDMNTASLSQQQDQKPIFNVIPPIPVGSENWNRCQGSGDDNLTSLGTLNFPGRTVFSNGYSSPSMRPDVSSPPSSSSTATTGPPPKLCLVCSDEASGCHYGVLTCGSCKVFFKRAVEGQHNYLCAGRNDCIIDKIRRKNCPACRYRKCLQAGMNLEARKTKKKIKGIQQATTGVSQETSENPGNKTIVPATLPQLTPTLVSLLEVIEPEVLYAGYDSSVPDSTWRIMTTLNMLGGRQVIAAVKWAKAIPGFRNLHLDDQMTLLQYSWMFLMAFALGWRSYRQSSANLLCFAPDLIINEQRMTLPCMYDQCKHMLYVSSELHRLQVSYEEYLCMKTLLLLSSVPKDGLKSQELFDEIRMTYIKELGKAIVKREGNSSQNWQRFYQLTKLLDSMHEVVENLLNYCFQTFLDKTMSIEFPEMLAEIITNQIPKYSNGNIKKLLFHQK", "experiment": "cell-based", "details": "A549, read-out: % inhibition of the reporter system as compared to the buffer control with 10 ng/mL PMA alone", "procedure": "The AP-1 assay is a cell-based luciferase reporter assay. A549 cells, which contain endogenous glucocorticoid receptor, were stably transfected with an AP-1 DNA binding site attached to the luciferase gene. Cells are then grown in RPMI+10% fetal calf serum (charcoal-treated)+Penicillin/Streptomycin with 0.5 mg/mL geneticin. Cells are plated the day before the assay at approximately 40000 cells/well. On assay day, the media is removed by aspiration and 20 μL assay buffer (RPMI without phenol red+10% FCS (charcoal-treated)+Pen/Strep) is added to each well. At this point either 20 μL assay buffer (control experiments), the compounds of the present invention (“test compounds”) (dissolved in DMSO and added at varying concentrations) or dexamethasome (100 nM in DMSO, positive control) are added to each well. The plates are then pre-incubated for 15 min at 37° C., followed by stimulation of the cells with 10 ng/mL PMA. The plates are then incubated for 7 h at 37° C. after which 40 μL luciferase substrate reagent is added to each well. Activity is measured by analysis in a luminometer as compared to control experiments treated with buffer or dexamethasome."}, "[3]": {"target": "T1, AR (Rattus norvegicus, UniProt P15207)", "T1 sequence (P15207 1-902)": "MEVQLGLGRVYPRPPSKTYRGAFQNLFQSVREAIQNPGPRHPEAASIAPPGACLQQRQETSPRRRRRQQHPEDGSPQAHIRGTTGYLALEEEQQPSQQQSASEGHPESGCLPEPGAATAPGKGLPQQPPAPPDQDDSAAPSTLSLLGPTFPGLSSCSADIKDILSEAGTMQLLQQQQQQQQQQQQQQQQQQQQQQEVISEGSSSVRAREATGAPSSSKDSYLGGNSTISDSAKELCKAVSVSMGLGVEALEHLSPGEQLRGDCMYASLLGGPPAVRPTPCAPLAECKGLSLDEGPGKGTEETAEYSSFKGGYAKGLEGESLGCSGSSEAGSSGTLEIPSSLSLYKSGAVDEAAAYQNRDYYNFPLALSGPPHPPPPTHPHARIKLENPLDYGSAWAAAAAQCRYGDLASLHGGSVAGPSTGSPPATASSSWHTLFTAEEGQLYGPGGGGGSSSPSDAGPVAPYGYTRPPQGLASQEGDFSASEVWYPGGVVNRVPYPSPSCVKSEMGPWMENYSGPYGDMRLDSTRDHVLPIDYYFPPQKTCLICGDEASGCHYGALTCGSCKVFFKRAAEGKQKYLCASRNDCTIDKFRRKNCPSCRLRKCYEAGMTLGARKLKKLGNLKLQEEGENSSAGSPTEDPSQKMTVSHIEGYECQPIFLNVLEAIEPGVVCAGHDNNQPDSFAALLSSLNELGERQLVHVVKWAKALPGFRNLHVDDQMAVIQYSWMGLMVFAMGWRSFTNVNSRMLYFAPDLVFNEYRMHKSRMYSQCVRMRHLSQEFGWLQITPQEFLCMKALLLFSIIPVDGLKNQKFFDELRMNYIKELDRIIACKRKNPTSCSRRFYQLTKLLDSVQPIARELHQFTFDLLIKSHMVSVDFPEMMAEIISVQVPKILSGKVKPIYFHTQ", "description": "Biol. Med., 83, 175 (1953); B. L. Beyler et al, “Methods for evaluating anabolic and catabolic agents in laboratory animals”, J. Amer. Med. Women's Ass., 23, 708 (1968); H. Fukuda et al., “Investigations of the levator ani muscle as an anabolic steroid assay”, Nago Dai. Yak. Ken. Nem. 14, 84 (1966) the disclosures of which are herein incorporated by reference.\nThe basis of this assay lies in the well-defined action of androgenic agents on the maintenance and growth of muscle tissues and sexual accessory organs in animals and man. […] J. Anat. […] Ital. Biol. Sper. […] II. […] Ital. Biol. Sper. 42, 1600 (1966); A. Boris et al., Steroids 15, 61 (1970). As described above, the effects of androgens on maintenance of male sexual accessory organs, such as the prostate and seminal vesicles, is well described. Castration results in rapid involution and atrophy of the prostate and seminal vesicles. This effect can be reversed by exogenous addition of androgens. Since both the levator ani muscle and the male sex organs are the tissues most responsive to the effects of androgenic agents, this model is used to determine the androgen dependent reversal of atrophy in the levator ani muscle and the sex accessory organs in immature castrated rats. Sexually mature rats (200-250 g, 6-8 weeks-old, Sprague-Dawley, Harlan) were acquired castrated from the vendor […]. […]"}},
  "data": [
    {"compound": "tritiated dihydrotestosterone [[^3H]-DHT]", "values": [
      {"measurement": "Kd", "setting": "[1]", "value": 0.7, "unit": "nM"}
    ]},
    {"compound": "C[C@@H]1C[C@H]2[C@@H]3CCC4=CC(=O)C=C[C@]4(C)[C@@]3(F)[C@@H](O)C[C@]2(C)[C@@]1(O)C(=O)CO", "note": "[dexamethasone]", "values": [
      {"measurement": "inhibition at 10 µM", "setting": "[2]", "value": 65, "unit": "%"}
    ]},
    {"compound": "CCC(=O)O[C@H]1CC[C@H]2[C@@H]3CCC4=CC(=O)CC[C@]4(C)[C@H]3CC[C@]12C", "note": "[TP, testosterone propionate]", "values": [
      {"measurement": "EC50 (increase in organ weight)", "setting": "[3]; castrated rats, organ weight", "value": "~0.03", "unit": "mg"},
      {"measurement": "potency relative to free T", "setting": "[3]; higher potency than free T", "value": "10-30 fold"}
    ]}
  ]
}
